Laboratory results taken from patent US20230279020A9, “CARM1 INHIBITORS AND USES THEREOF” (Epizyme, Inc., priority 2013, published 2023).

Biological target: Human CARM1 (PRMT4) (Homo sapiens (Human), UniProt Q86X55)
Experiment: CARM1 enzyme assay on peptide substrate (3H-SAM Flashplate)
Details: Biochemical potencies, classification codes; read-out: Biochem IC50

Chain of Human CARM1 (PRMT4) (Q86X55 other isoform, or with tags, fused parts or gaps isoform Q86X55-1): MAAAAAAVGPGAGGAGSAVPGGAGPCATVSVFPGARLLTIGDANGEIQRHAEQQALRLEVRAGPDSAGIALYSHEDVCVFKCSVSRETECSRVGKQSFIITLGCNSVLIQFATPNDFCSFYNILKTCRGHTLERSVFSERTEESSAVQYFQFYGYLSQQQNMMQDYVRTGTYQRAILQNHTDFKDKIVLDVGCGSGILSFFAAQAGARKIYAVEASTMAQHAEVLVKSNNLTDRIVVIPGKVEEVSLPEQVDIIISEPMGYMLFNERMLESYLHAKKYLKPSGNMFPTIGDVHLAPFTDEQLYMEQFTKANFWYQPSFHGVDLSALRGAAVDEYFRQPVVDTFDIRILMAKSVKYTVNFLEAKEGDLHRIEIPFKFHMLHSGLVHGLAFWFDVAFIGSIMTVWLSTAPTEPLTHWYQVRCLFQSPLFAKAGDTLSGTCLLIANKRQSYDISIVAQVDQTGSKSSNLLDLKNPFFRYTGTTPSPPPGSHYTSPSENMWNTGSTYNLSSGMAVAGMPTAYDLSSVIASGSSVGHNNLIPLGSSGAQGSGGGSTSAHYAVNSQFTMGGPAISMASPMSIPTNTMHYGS

SMILES | IC50
CNCC(O)COc1cccc(-c2nc(N[C@@H]3C[C@H]4CC[C@@H](C3)N4C(=O)OC)c(C)c(-c3c(C)noc3C)n2)c1 (stereo partly drawn) [Example 265-1a] | < 0.1 µM
CNC[C@@H](O)COc1ccc(Cl)c(-c2nc(-c3c(C)noc3C)c(C)c(N3Cc4cnn(CC(F)(F)F)c4C3)n2)c1 [Example 265-3] | < 0.1 µM
CNCC(O)COc1cccc(-c2nc(N[C@H]3C[C@H]4CC[C@@H](C3)N4C(=O)OC)c(C)c(-c3c(C)noc3C)n2)c1 (stereo partly drawn) [Example 266-1a] | < 0.1 µM
CNC[C@@H](O)COc1ccc(F)c(-c2nc(-c3c(C)noc3C)c(C)c(N3Cc4cccc(F)c4C3)n2)c1 [Example 266-3] | < 0.1 µM
CNCC(O)COc1cccc(-c2nc(N[C@H]3COC(=O)C3)c(C)c(-c3c(C)noc3C)n2)c1 (stereo partly drawn) [Example 267-1a] | < 0.1 µM
CNC[C@@H](O)COc1ccc(Cl)c(-c2nc(-c3c(C)noc3C)c(C)c(N3Cc4cccc(F)c4C3)n2)c1 [Example 267-3] | < 0.1 µM
CNCC(O)COc1cccc(-c2nc(N[C@@H]3COC(=O)C3)c(C)c(-c3c(C)noc3C)n2)c1 (stereo partly drawn) [Example 268-1a] | < 0.1 µM
CNC[C@@H](O)COc1ccc(Cl)c(-c2nc(-c3c(C)noc3C)c(C)c(C3CCOCC3)n2)c1 [Example 268-3] | < 0.1 µM
CNCC(O)COc1cccc(-c2nc(NC3CCOCC3C)c(C)c(-c3c(C)noc3C)n2)c1 (stereo not drawn) [Example 269-1a] | < 0.1 µM
CNC[C@@H](O)COc1ccc(F)c(-c2nc(-c3c(C)noc3C)c(C)c(N3CC4(CCCCO4)C3)n2)c1 [Example 269-3] | < 0.1 µM
CNCC(O)COc1ccc(Cl)c(-c2nc(NC3CCN(C(=O)OC)CC3)c(C)c(-c3c(C)noc3C)n2)c1 (stereo not drawn) [Example 270-1a] | < 0.1 µM
CNC[C@@H](O)COc1ccc(Cl)c(-c2nc(-c3c(C)noc3C)c(C)c(N3Cc4cnn(C5CC5)c4C3)n2)c1 [Example 270-3] | < 0.1 µM
CNCC(O)COc1cccc(-c2nc(N[C@@H]3CCOC[C@@H]3F)c(C)c(-c3c(C)noc3C)n2)c1 (stereo partly drawn) [Example 271-1a] | < 0.1 µM
CNC[C@H](O)COc1ccc(Cl)c(-c2nc(-c3c(C)noc3C)c(C)c(N3Cc4cn(C(C)C)nc4C3)n2)c1 [Example 272-1a] | < 0.1 µM
CNC[C@@H](O)COc1ccc(Cl)c(-c2nc(-c3c(C)noc3C)c(C)c(N3Cc4cn(C(C)C)nc4C3)n2)c1 [Example 272-3] | < 0.1 µM
CCS(=O)(=O)N1CC(Nc2nc(-c3cccc(OCC(O)CNC)c3)nc(-c3c(C)noc3C)c2C)C1 (stereo not drawn) [Example 273-1a] | < 0.1 µM
CNCC(O)COc1ccc(Cl)c(-c2nc(NC3CCOCC3)c(C)c(-c3c(CO)noc3C)n2)c1 (stereo not drawn) [Example 273-3] | < 0.1 µM
CNCC(O)COc1cccc(-c2nc(NC[C@H]3COCCN3CC(F)F)c(C)c(-c3c(C)noc3C)n2)c1 (stereo partly drawn) [Example 274-1a] | < 0.1 µM
CNC[C@@H](O)COc1ccc(F)c(-c2nc(-c3c(C)noc3C)cc(N3Cc4nccnc4C3)n2)c1 [Example 274-3] | < 0.1 µM
CNCC(O)COc1cccc(-c2nc(NC3CN(C(=O)OC)C3)c(C)c(-c3c(C)noc3C)n2)c1 (stereo not drawn) [Example 275-1a] | < 0.1 µM
CNC[C@@H](O)COc1ccc(F)c(-c2nc(-c3c(C)noc3C)cc(N3Cc4cnn(C)c4C3)n2)c1 [Example 275-3] | < 0.1 µM
CCc1onc(C)c1-c1nc(-c2cccc(OCC(O)CNC)c2)nc(NC2CCOCC2)c1C (stereo not drawn) [Example 276-1a] | < 0.1 µM

SMILES | IC50
CCOC(=O)N1CCOC[C@@H]1CNc1nc(-c2cccc(OC[C@H](O)CNC)c2)nc(-c2c(C)noc2C)c1C [Example 277-1a] | < 0.1 µM
CNC[C@@H](O)COc1ccc(F)c(-c2nc(-c3c(C)noc3C)cc(N3CC4(CCOCC4)C3)n2)c1 [Example 277-3] | < 0.1 µM
CCOC(=O)N1CCOC[C@@H]1CNc1nc(-c2cccc(OC[C@@H](O)CNC)c2)nc(-c2c(C)noc2C)c1C [Example 278-1a] | < 0.1 µM
CNC[C@@H](O)COc1cccc(-c2nc(NC3CCN(C(=O)OC)CC3)cc(-c3c(C)nnn3C)n2)c1 [Example 278-3] | < 0.1 µM
CNCC(O)COc1cccc(-c2nc(N[C@H]3CCOC[C@@H]3F)c(C)c(-c3c(C)noc3C)n2)c1 (stereo partly drawn) [Example 279-1a] | < 0.1 µM
CNC[C@@H](O)COc1ccc(Cl)c(-c2nc(-c3c(C)noc3C)c(C)c(N3Cc4[nH]c(=O)[nH]c(=O)c4C3)n2)c1 [Example 279-3] | < 0.1 µM
CNCC(O)COc1cccc(-c2nc(NC3C[C@@H](O)[C@H](O)C3)c(C)c(-c3c(C)noc3C)n2)c1 (stereo partly drawn) [Example 280-1a] | < 0.1 µM
CNC[C@@H](O)COc1ccc(F)c(-c2nc(-c3c(C)noc3C)c(C)c(N3CC4(CCN(CC(F)F)CC4)C3)n2)c1 [Example 280-3] | < 0.1 µM
CNCC(O)COc1cccc(-c2nc(N[C@H]3CCOC3=O)c(C)c(-c3c(C)noc3C)n2)c1 (stereo partly drawn) [Example 281-1a] | < 0.1 µM
CNC[C@@H](O)COc1ccc(F)c(-c2nc(-c3c(C)noc3C)c(C)c(N3CC4(CCN(C(=O)OC(C)C)CC4)C3)n2)c1 [Example 281-3] | < 0.1 µM
CNCC(O)COc1cccc(-c2nc(N[C@H]3[C@@H]4CN(C(=O)OC)C[C@@H]43)c(C)c(-c3c(C)noc3C)n2)c1 (stereo partly drawn) [Example 282-1a] | < 0.1 µM
CCOC(=O)N1CCC2(CC1)CN(c1nc(-c3cc(OC[C@H](O)CNC)ccc3F)nc(-c3c(C)noc3C)c1C)C2 [Example 282-3] | < 0.1 µM
CNCC(O)COc1cccc(-c2nc(NCC3CCN(C4CC4)CC3)c(C)c(-c3c(C)noc3C)n2)c1 (stereo not drawn) [Example 283-1a] | < 0.1 µM
CNC[C@@H](O)COc1ccc(Cl)c(-c2nc(-c3c(C)noc3C)c(C)c(N3CC4(CCN(CC(F)F)CC4)C3)n2)c1 [Example 283-3] | < 0.1 µM
CNCC(O)COc1cccc(-c2nc(OCC3CCN(C(=O)OC)CC3)c(C)c(-c3c(C)noc3C)n2)c1 (stereo not drawn) [Example 284-1a] | < 0.1 µM
CNC[C@@H](O)COc1ccc(Cl)c(-c2nc(-c3c(C)noc3C)c(C)c(N3CC4(CCN(C(=O)OC(C)C)CC4)C3)n2)c1 [Example 284-3] | < 0.1 µM
CNCC(O)COc1cccc(-c2nc(OCC3CCN(C(=O)N(C)C)CC3)c(C)c(-c3c(C)noc3C)n2)c1 (stereo not drawn) [Example 285-1a] | < 0.1 µM
CCOC(=O)N1CCC2(CC1)CN(c1nc(-c3cc(OC[C@H](O)CNC)ccc3Cl)nc(-c3c(C)noc3C)c1C)C2 [Example 285-3] | < 0.1 µM
CNCC(O)COc1cccc(-c2nc(OCC3CCN(S(C)(=O)=O)CC3)c(C)c(-c3c(C)noc3C)n2)c1 (stereo not drawn) [Example 286-1a] | < 0.1 µM
CNC[C@@H](O)COc1ccc(Cl)c(-c2nc(-c3c(C)noc3C)c(C)c(N3CC4(CCN(C(=O)OC(C)C)C4)C3)n2)c1 [Example 286-3] | < 0.1 µM
CNCC(O)COc1cccc(-c2nc(OCC3CCN(C(C)=O)CC3)c(C)c(-c3c(C)noc3C)n2)c1 (stereo not drawn) [Example 287-1a] | < 0.1 µM
CCOC(=O)N1CCC2(C1)CN(c1nc(-c3cc(OC[C@H](O)CNC)ccc3Cl)nc(-c3c(C)noc3C)c1C)C2 [Example 287-3] | < 0.1 µM

SMILES | IC50
CNCC(O)COc1cccc(-c2nc(OCC3CCN(CC(F)F)CC3)c(C)c(-c3c(C)noc3C)n2)c1 (stereo not drawn) [Example 288-1a] | < 0.1 µM
CNC[C@@H](O)COc1ccc(Cl)c(-c2nc(-c3c(C)noc3C)c(C)c(N3CCC4(CCOC4)C3)n2)c1 (stereo partly drawn) [Example 288-3] | < 0.1 µM
CNCC(O)COc1cccc(-c2nc(OCC3CCNCC3)c(C)c(-c3c(C)noc3C)n2)c1 (stereo not drawn) [Example 289-1a] | < 0.1 µM
CNC[C@@H](O)COc1ccc(Cl)c(-c2nc(-c3c(C)noc3C)c(C)c(N3CCC4(CCCO4)C3)n2)c1 (stereo partly drawn) [Example 289-3] | < 0.1 µM
CNCC(O)COc1cccc(-c2nc(NC3CCOC(C)(C)C3)c(C)c(-c3c(C)noc3C)n2)c1 (stereo not drawn) [Example 290-1a] | < 0.1 µM
CNC[C@@H](O)COc1ccc(Cl)c(-c2nc(-c3c(C)noc3C)c(C)c(N3CC4(CCCCO4)C3)n2)c1 [Example 290-3] | < 0.1 µM
CNCC(O)COc1cccc(-c2nc(N[C@@H]3CCOC3=O)c(C)c(-c3c(C)noc3C)n2)c1 (stereo partly drawn) [Example 291-1a] | < 0.1 µM
CNCC(O)COc1cccc(-c2nc(NC3CCC3)c(C)c(-c3c(C)noc3C)n2)c1 (stereo not drawn) [Example 292-1a] | < 0.1 µM
CNCC(O)COc1cccc(-c2nc(NC3CC3)c(C)c(-c3c(C)noc3C)n2)c1 (stereo not drawn) [Example 293-1a] | < 0.1 µM
CNC[C@@H](O)COc1ccc(Cl)c(-c2nc(-c3c(C)noc3C)c(C)c(N3Cc4cn(S(C)(=O)=O)nc4C3)n2)c1 [Example 293-3] | < 0.1 µM
CNCC(O)COc1cccc(-c2nc(-c3c(C)noc3C)c(C)c(N3CCC4(CC3)CN(C3CC3)C4)n2)c1 (stereo not drawn) [Example 294-1a] | < 0.1 µM
CNC[C@@H](O)COc1ccc(F)c(-c2nc(-c3c(C)noc3C)c(Cl)c(N3CC4(CCOCC4)C3)n2)c1 [Example 294-3] | < 0.1 µM
CCOC(=O)N1CC2(CCCN(c3nc(-c4cccc(OCC(O)CNC)c4)nc(-c4c(C)noc4C)c3C)C2)C1 (stereo not drawn) [Example 295-1a] | < 0.1 µM
CNC[C@@H](O)COc1ccc(F)c(-c2nc(-c3c(C)noc3C)c(Cl)c(N3Cc4nccnc4C3)n2)c1 [Example 295-3] | < 0.1 µM
CCS(=O)(=O)N1CC2(CCCN(c3nc(-c4cccc(OCC(O)CNC)c4)nc(-c4c(C)noc4C)c3C)C2)C1 (stereo not drawn) [Example 296-1a] | < 0.1 µM
CNC[C@@H](O)COc1ccc(Cl)c(-c2nc(-c3c(C)noc3C)c(C)c(N3Cc4cc(C)cnc4C3)n2)c1 [Example 296-3] | < 0.1 µM
CNCC(O)COc1cccc(-c2nc(-c3c(C)noc3C)c(C)c(N3CCCC4(CN(C(=O)N(C)C)C4)C3)n2)c1 (stereo not drawn) [Example 297-1a] | < 0.1 µM
CNC[C@@H](O)COc1ccc(Cl)c(-c2nc(-c3c(C)noc3C)c(F)c(N3Cc4nccnc4C3)n2)c1 [Example 297-3] | < 0.1 µM
CNCC(O)COc1cccc(-c2nc(-c3c(C)noc3C)c(C)c(N3CC(CO)(CNC(=O)N(C)C)C3)n2)c1 (stereo not drawn) [Example 298-1a] | < 0.1 µM
CNCC(O)COc1cccc(-c2nc(-c3c(C)noc3C)c(C)c(N3CC4(CN(C(=O)OC)C4)C3)n2)c1 (stereo not drawn) [Example 299-1a] | < 0.1 µM
CNCC(O)COc1cccc(-c2nc(NCC3(OC)CCOCC3)c(C)c(-c3c(C)noc3C)n2)c1 (stereo not drawn) [Example 300-1a] | < 0.1 µM
CNCC(O)COc1cccc(-c2nc(NCC3(N4CCC4)CCOCC3)c(C)c(-c3c(C)noc3C)n2)c1 (stereo not drawn) [Example 301-1a] | < 0.1 µM
